Test results published in the supplement of paper PMC11061612.

How the values were obtained:
[1] = tested on: SUP-B15 (B-Lymphoblastic Leukemia); test: Bliss excess, mean over the matrix (fraction); higher = more synergy
Summary of the method: (§1)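 Bliss excess equals the observed combination effect minus the expected value EA + EB − EA·EB, where EA and EB are the effects of each agent alone. Combination Emax is the second-highest inhibition within the matrix. Inhibition was scaled from CellTiter-Glo 2.0 luminescence, with 0 set by vehicle wells and 1 by blank wells, after 72 hours of two-drug dosing of cells plated in 1536-well plates.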

[2] = tested on: M059J (Glioblastoma); test: combination Emax (second highest fraction inhibited in the dose matrix, 72 h); higher = more inhibition; extreme values may be limits of the assay
Summary of the method: as §1

[3] = tested on: KYSE-270 (Esophageal Squamous Cell Carcinoma); test: as above
Summary of the method: as §1

[4] = tested on: JHH-4 (Hepatocellular Carcinoma); test: as above
Summary of the method: as §1

[5] = tested on: H9 (T-Cell Non-Hodgkin's Lymphoma); test: as above
Summary of the method: as §1

[6] = tested on: MOLM-13 (Acute Myeloid Leukemia); test: as above
Summary of the method: as §1

[7] = tested on: HCC1187 (Breast Carcinoma); test: as above
Summary of the method: as §1

[8] = tested on: IM-95 (Gastric Carcinoma); test: as above
Summary of the method: as §1

[9] = tested on: HCC1419 (Breast Carcinoma); test: as above
Summary of the method: as §1

[10] = tested on: SK-GT-4 (Esophageal Adenocarcinoma); test: as above
Summary of the method: as §1

[11] = tested on: NCI-H661 (Non-Small Cell Lung Carcinoma); test: as above
Summary of the method: as §1

[12] = tested on: ST486 (Burkitt's Lymphoma); test: as above
Summary of the method: as §1

[13] = tested on: RPMI-8226 (Plasma Cell Myeloma); test: as above
Summary of the method: as §1

[14] = tested on: DMS-114 (Small Cell Lung Carcinoma); test: as above
Summary of the method: as §1

[15] = tested on: ESO51 (Esophageal Adenocarcinoma); test: as above
Summary of the method: as §1

[16] = tested on: KP-3 (Pancreatic Carcinoma); test: as above
Summary of the method: as §1

[17] = tested on: SK-GT-2 (Gastric Carcinoma); test: as above
Summary of the method: as §1

[18] = tested on: CHSA8926 (Chondrosarcoma); test: as above
Summary of the method: as §1

[19] = tested on: NCI-H2731 (Mesothelioma); test: as above
Summary of the method: as §1

[20] = tested on: SJSA-1 (Osteosarcoma); test: as above
Summary of the method: as §1

SMILES	Bliss excess [1]	combination Emax [2]	combination Emax [3]	combination Emax [4]	combination Emax [5]	combination Emax [6]	combination Emax [7]	combination Emax [8]	combination Emax [9]	combination Emax [10]	combination Emax [11]	combination Emax [12]	combination Emax [13]	combination Emax [14]	combination Emax [15]	combination Emax [16]	combination Emax [17]	combination Emax [18]	combination Emax [19]	combination Emax [20]
COc1cccc(OCCCN)c1-c1cc(Nc2cnc(C#N)cn2)n[nH]1 [Prexasertib] + CN(C)CCCOc1ccc(-c2ccc3ncc4c(c3c2)n(C2CCOCC2)c(=O)n4C)cn1 [AZD0156] (first compound max 1 µM, 7x7, partner max 1 µM)	-0.0513	0.658	1	0.529	1	1	0.645	0.458	0.258	0.724	0.744	0.991	1	0.408	0.788	0.513	0.823	0.288	0.406	0.711
COc1nnc2ccc(N3CCC(c4ccc(OCCN5CCN(C)C(=O)[C@H]5C)cc4)CC3)nn12 [AZD5153] + C=CCn1c(=O)c2cnc(Nc3ccc(N4CCN(C)CC4)cc3)nc2n1-c1cccc(C(C)(C)O)n1 [AZD1775] (first compound max 1 µM, partner max 1 µM)	0.0252	0.668	0.656	0.56	1	1	0.792	0.5	0.346	0.6	0.731	0.985	0.845	0.629	0.723	0.4	0.755	0.735	0.535	0.589
CN(C)CCCOc1ccc(-c2ccc3ncc4c(c3c2)n(C2CCOCC2)c(=O)n4C)cn1 [AZD0156] + CCN(CCO)CCCOc1ccc2c(Nc3cc(CC(=O)Nc4cccc(F)c4)[nH]n3)ncnc2c1 [AZD2811] (first compound max 1 µM, 7x7, partner max 1 µM)	-0.0595	0.338	0.0944	0.095	0.727	0.983	0.844	0.438	0.118	0.192	0.0442	0.913	0.556	0.232	0.163	0.0612	0.0747	0.214	0.144	0.123
COc1cccc(OCCCN)c1-c1cc(Nc2cnc(C#N)cn2)n[nH]1 [Prexasertib] + CCc1c2c(nc3ccc(O)cc13)-c1cc3c(c(=O)n1C2)COC(=O)[C@]3(O)CC [SN-38] (first compound max 1 µM, 7x7, partner max 0.3 µM)	-0.0197	0.98	1	0.954	1	1	0.866	0.602	0.402	0.743	0.889	1	1	0.716	0.879	0.57	0.975	0.537	0.663	0.743
Cn1cnc2c(F)c(Nc3ccc(Br)cc3Cl)c(C(=O)NOCCO)cc21 [Selumetinib] + C[C@@H]1COCCN1C2=NC(=NC(=C2)C3(CC3)[S@](=N)(=O)C)C4=C5C=CNC5=NC=C4 [AZD6738] (first compound max 10 µM, 7x7, partner max 10 µM)	0.142	0.291	0.524	0.752	1	1	0.636	0.304	0.174	0.616	0.396	0.877	0.871	0.34	0.857	0.156	0.186	0.404	0.173	0.559
Cc1c2c(nn1C)CSCc1cc(n(C)n1)CSc1cc(c3ccccc3c1)OCCCc1c(C(=O)O)n(C)c3c-2c(Cl)ccc13 [AZD5991] + CC1(C)CCC(CN2CCN(c3ccc(C(=O)NS(=O)(=O)c4ccc(NCC5CCOCC5)c([N+](=O)[O-])c4)c(Oc4cnc5[nH]ccc5c4)c3)CC2)=C(c2ccc(Cl)cc2)C1 [Venetoclax] (first compound max 1 µM, 7x7, partner max 1 µM)	0.0213	0.347	0.822	0.265	0.693	1	0.997	0.837	0.275	0.2	0.561	0.974	1	0.911	0.187	0.129	0.198	0.506	0.0671	0.296
Cc1c2c(nn1C)CSCc1cc(n(C)n1)CSc1cc(c3ccccc3c1)OCCCc1c(C(=O)O)n(C)c3c-2c(Cl)ccc13 [AZD5991] + C[C@@H]1COCCN1C2=NC(=NC(=C2)C3(CC3)[S@](=N)(=O)C)C4=C5C=CNC5=NC=C4 [AZD6738] (first compound max 1 µM, 7x7, partner max 10 µM)	0.0181	0.774	0.892	0.369	1	1	1	0.859	0.275	0.526	0.829	1	1	0.815	0.747	0.377	0.334	0.643	0.294	0.47
CN(CCO)CC[C@H](CSc1ccccc1)Nc1ccc(S(=O)(=O)NC(=O)c2ccc(N3CCC([C@@H](O)c4ccccc4-c4ccc(Cl)cc4)CC3)cc2)cc1S(=O)(=O)C(F)(F)F [AZD4320] + Cc1cc2ncnn2cc1Nc1ncc2c(n1)n(C1CCOCC1)c(=O)n2C [AZD7648] (first compound max 1 µM, 7x7, partner max 10 µM)	-0.0072	0.386	0.0273	0.233	0.99	1	0.114	0.6	0.278	0.321	0.0745	0.959	0.965	0.321	0.149	0.0376	0.245	0.688	0.117	0.283
CCN(CCO)CCCOc1ccc2c(Nc3cc(CC(=O)Nc4cccc(F)c4)[nH]n3)ncnc2c1 [AZD2811] + C=CCn1c(=O)c2cnc(Nc3ccc(N4CCN(C)CC4)cc3)nc2n1-c1cccc(C(C)(C)O)n1 [AZD1775] (first compound max 1 µM, partner max 1 µM)	0.044	0.553	0.63	0.355	0.985	1	0.839	0.475	0.0861	0.363	0.543	0.983	0.562	0.243	0.627	0.209	0.769	0.455	0.382	0.289
COc1nnc2ccc(N3CCC(c4ccc(OCCN5CCN(C)C(=O)[C@H]5C)cc4)CC3)nn12 [AZD5153] + CC1(C)CCC(CN2CCN(c3ccc(C(=O)NS(=O)(=O)c4ccc(NCC5CCOCC5)c([N+](=O)[O-])c4)c(Oc4cnc5[nH]ccc5c4)c3)CC2)=C(c2ccc(Cl)cc2)C1 [Venetoclax] (first compound max 1 µM, 7x7, partner max 1 µM)	0.0051	0.756	0.547	0.392	1	1	0.24	0.333	0.389	0.484	0.264	0.929	0.8	0.607	0.581	0.21	0.256	0.509	0.432	0.546
CN(CCO)CC[C@H](CSc1ccccc1)Nc1ccc(S(=O)(=O)NC(=O)c2ccc(N3CCC([C@@H](O)c4ccccc4-c4ccc(Cl)cc4)CC3)cc2)cc1S(=O)(=O)C(F)(F)F [AZD4320] + CCN(CCO)CCCOc1ccc2c(Nc3cc(CC(=O)Nc4cccc(F)c4)[nH]n3)ncnc2c1 [AZD2811] (first compound max 1 µM, 7x7, partner max 1 µM)	0.0255	0.69	0.113	0.17	0.978	1	0.914	0.859	0.0755	0.238	0.0831	0.979	0.986	0.247	0.233	0.0781	0.554	0.643	0.492	0.335
Cc1cc2ncnn2cc1Nc1ncc2c(n1)n(C1CCOCC1)c(=O)n2C [AZD7648] + CCN(CCO)CCCOc1ccc2c(Nc3cc(CC(=O)Nc4cccc(F)c4)[nH]n3)ncnc2c1 [AZD2811] (first compound max 10 µM, 7x7, partner max 1 µM)	-0.0667	0.457	0.183	0.245	0.722	1	0.824	0.424	0.285	0.389	0.308	0.831	0.392	0.306	0.227	0.237	0.198	0.47	0.409	0.359
